Assay results published in patent US4613598A, “Piperazine derivatives and their acid addition salts” (Mitsubishi Chemical Industries Limited, priority 1984, dated 1986).
Counter-ions that a name gives are not always drawn.

Key:
[1] = tested on: spontaneous hypertensive rats; experiment: Hypotensive activity in non-narcotized, heart-catheterized spontaneous hypertensive rats; assay type: in vivo; settings: Rattus norvegicus, oral, lowest blood pressure during 6 hours after administration, read-out: Hypotensive ratio
Experimental: Hypotensive activity As the experimental animal, spontaneous hypertensive rats 5 to 7 months after birth with a body weight of 300 to 370 g were used. The blood pressure and the heart beat of the non-narcotized, heart-catheterized rats were operatively determined to calculate the averages in blood pressure and heart beat prior to the administration of the present compound. Successively during 6 hours after orally administering the present compound, the blood pressure and the heart beat were determined to calculate the hypotensive ratio by the following formula: [formula] wherein X is the average in blood pressure before administration; and Y is the value of the lowest blood pressure after the administration.

[2] = Acute toxicity (LD50, Litchfield-Wilcoxon method), oral administration to mouse; settings: in vivo
Experimental: The present compound was orally administered to mouse and the acute toxicity value (LD50) was calculated according to Litchfield-Wilcoxonmethod.

Compound: COc1ccc(C(O)CN2CCN(c3ccccc3)CC2)cc1S(N)(=O)=O (centres unmarked) [Control 1, reference compound]
- inhibition in vivo at 1 mg/kg [1]: 10.5%
- inhibition in vivo at 10 mg/kg [1]: 2.5%

Compound: O=C1CSc2ccc(C(=O)CCCN3CCN(c4ccccn4)CC3)cc2N1 [Compound No. 49]
- inhibition in vivo at 1 mg/kg [1]: 10.9%
- inhibition in vivo at 3 mg/kg [1]: 45.7%

Compound: COc1ccccc1N1CCN(CCCCC(=O)c2ccc(SC)c(S(N)(=O)=O)c2)CC1 [Compound No. 6, 5-[5-[4-(2-methoxyphenyl)-1-piperazinyl]valeryl]-2-methylthio-benzenesulfonamide]
- LD50 [2]: > 3000 mg/kg
- inhibition in vivo at 1 mg/kg [1]: 16.1%
- inhibition in vivo at 3 mg/kg [1]: 24.3%
- inhibition in vivo at 10 mg/kg [1]: 23%

Compound: COc1ccccc1N1CCN(CCCCC(=O)c2ccc(O)c(C(N)=O)c2)CC1 [Compound No. 12, 5-[5-[4-(2-methoxyphenyl)-1-piperazinyl]valeryl]-salicylamide]
- LD50 [2]: > 3000 mg/kg
- inhibition in vivo at 3 mg/kg [1]: 35.2%

Compound: COc1ccccc1N1CCN(CCCCC(=O)c2ccc(SC)c(NC(N)=O)c2)CC1 [Compound No. 34, 5-[5-[4-(2-methoxyphenyl)-1-piperazinyl]valeryl]-2-methylthio-N-carbamoylaniline]
- inhibition in vivo at 1 mg/kg [1]: 17.6%
- inhibition in vivo at 3 mg/kg [1]: 28.9%
- inhibition in vivo at 10 mg/kg [1]: 39.9%

Compound: COc1ccccc1N1CCN(CCCCC(=O)c2ccc([S+](C)[O-])c(S(N)(=O)=O)c2)CC1 (centres unmarked) [Compound No. 7, 5-[5-[4-(2-methoxyphenyl)-1-piperazinyl]valeryl]-2-methylsulfinyl-benzenesulfonamide]
- inhibition in vivo at 1 mg/kg [1]: 8.9%
- inhibition in vivo at 3 mg/kg [1]: 17.5%
- inhibition in vivo at 10 mg/kg [1]: 31.3%

Compound: COc1ccccc1N1CCN(CCCCC(=O)c2ccc(OC)c(S(N)(=O)=O)c2)CC1 [Compound No. 2, 5-[5-[4-(2-methoxyphenyl)-1-piperazinyl]valeryl]-2-methoxy-benzenesulfonamide dihydrochloride]
- inhibition in vivo at 0.3 mg/kg [1]: 10.5%
- inhibition in vivo at 1 mg/kg [1]: 34.6%
- inhibition in vivo at 3 mg/kg [1]: 19.7%

Compound: NC(=O)c1cc(C(=O)CCCCN2CCN(c3ccccc3Cl)CC2)ccc1O [Compound No. 13, 5-[5-[4-(2-chlorophenyl)-1-piperazinyl]valeryl]salicylamide]
- inhibition in vivo at 3 mg/kg [1]: 19.7%
- inhibition in vivo at 10 mg/kg [1]: 16.5%

Compound: COc1ccc(C(=O)CCCCN2CCN(c3ccccc3OC)CC2)cc1NC(N)=O [Compound No. 26, 5-[5-[4-(2-methoxyphenyl)-1-piperazinyl]valeryl]-2-methoxy-N-carbamoylaniline]
- LD50 [2]: 2700 mg/kg
- inhibition in vivo at 3 mg/kg [1]: 31.8%

Compound: COc1ccccc1N1CCN(CCCCC(=O)c2ccc3c(c2)NC(=O)CCO3)CC1 [Compound No. 41, 7-[5-[4-(2-methoxyphenyl)-1-piperazinyl]valeryl]-2,3,4,5-tetrahydro-1,5-benzoxazepine-4-one]
- inhibition in vivo at 0.3 mg/kg [1]: 25.9%
- inhibition in vivo at 1 mg/kg [1]: 33%
- inhibition in vivo at 3 mg/kg [1]: 35.6%

Compound: O=C(O)c1cc(C(O)CCCCN2CCN(c3ccccn3)CC2)ccc1O (centres unmarked) [Compound No. 17, 5-[5-[4-(2-pyridyl)-1-piperazinyl]-1-hydroxypentyl]salicylic acid]
- inhibition in vivo at 3 mg/kg [1]: 21.1%
- inhibition in vivo at 10 mg/kg [1]: 15.7%

Compound: COc1ccc(C(O)CN2CCN(c3ccccc3)CC2)cc1NC(N)=O (centres unmarked) [Control 3, reference compound]
- inhibition in vivo at 3 mg/kg [1]: 5.6%
- inhibition in vivo at 10 mg/kg [1]: 9.4%

Compound: COc1ccc(C(=O)CCCCN2CCN(c3ccccc3OC)CC2)cc1NS(C)(=O)=O [Compound No. 29, 5-[5-[4-(2-methoxyphenyl)-1-piperazinyl]valeryl]-2-methoxy-N-methanesulfonylaniline dihydrochloride]
- inhibition in vivo at 1 mg/kg [1]: 22.8%
- inhibition in vivo at 3 mg/kg [1]: 37.3%

Compound: COc1ccccc1N1CCN(CCCCC(=O)c2ccc(O)c(NC(C)=O)c2)CC1 [Compound No. 23, 5-[5-[4-(2-methoxyphenyl)-1-piperazinyl]valeryl]-2-hydroxyacetanilide]
- inhibition in vivo at 3 mg/kg [1]: 36.5%

Compound: COc1ccccc1N1CCN(CCCCC(=O)c2ccc([S+](C)[O-])c(NC(N)=O)c2)CC1 (centres unmarked) [Compound No. 35, 5-[5-[4-(2-methoxyphenyl)-1-piperazinyl]valeryl]-2-methylsulfinyl-N-carbamoylaniline]
- LD50 [2]: > 3000 mg/kg
- inhibition in vivo at 0.3 mg/kg [1]: 16.5%
- inhibition in vivo at 1 mg/kg [1]: 16.1%
- inhibition in vivo at 3 mg/kg [1]: 25.6%
- inhibition in vivo at 10 mg/kg [1]: 47.9%

Compound: NC(=O)c1cc(C(=O)CN2CCN(c3ccccc3)CC2)ccc1O [Control 2, 5[2(4-phenyl-1-piperazinyl)acetyl]salicylamide, reference compound]
- inhibition in vivo at 1 mg/kg [1]: 9.9%
- inhibition in vivo at 3 mg/kg [1]: 13.7%
- inhibition in vivo at 10 mg/kg [1]: 6.6%
